Patent publication US9695155B2, “Herbicidal substituted pyrimidinyloxy benzene compounds” (E. I. DU PONT DE NEMOURS AND COMPANY, priority 2013, dated 2017)

Key:
wheat [1] = experiment: Test A preemergence; type: in vivo, Triticum aestivum; settings: for Wheat plant response rating: 500 g ai/ha
In short: (§1)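 Injury scores run from 0, no effect, to 100, complete control, judged by eye against untreated plants roughly 10 days after treatment. Chemicals carried a surfactant in a non-phytotoxic solvent and went onto loam–sand soil preemergence or onto one- to two-leaf seedlings postemergence.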

giant foxtail [2] = experiment: Test A postemergence; type: in vivo, Setaria faberii
In short: as §1

wheat [3] = experiment: Test A postemergence; type: in vivo, Triticum aestivum
In short: as §1

large (Lg) crabgrass [4] = experiment: Test A postemergence; type: in vivo, Digitaria sanguinalis
In short: as §1

corn [5] = experiment: Test A postemergence; type: in vivo, Zea mays
In short: as §1

corn [6] = experiment: Test A preemergence; type: in vivo, Zea mays; settings: for Corn plant response rating: 500 g ai/ha
In short: as §1

pigweed [7] = experiment: Test A preemergence; type: in vivo, Amaranthus retroflexus; settings: for Pigweed plant response rating: 500 g ai/ha
In short: as §1

morningglory [8] = experiment: Test A preemergence; type: in vivo, Ipomoea spp.; settings: for Morningglory plant response rating: 500 g ai/ha
In short: as §1

pigweed [9] = experiment: Test A postemergence; type: in vivo, Amaranthus retroflexus
In short: as §1

velvetleaf [10] = experiment: Test A postemergence; type: in vivo, Abutilon theophrasti
In short: as §1

rice = experiment: Test B flooded paddy test; type: in vivo, Oryza sativa; settings: Flood, 250 g ai/ha; 0 to 100 scale where 0 is no effect and 100 is complete control
In short: (§2)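 Compound added straight to paddy water, with pots kept flooded 3 cm above soil, on plants grown to the 2-leaf stage. Visual scoring 0-100 (100 = complete control) against untreated controls after 13 to 15 greenhouse days.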

morningglory [11] = experiment: Test A postemergence; type: in vivo, Ipomoea spp.
In short: as §1

barnyardgrass [12] = experiment: Test A postemergence; type: in vivo, Echinochloa crus-galli
In short: as §1

sedge, umbrella = experiment: Test B flooded paddy test; type: in vivo, Cyperus difformis; settings: Flood, 250 g ai/ha; 0 to 100 scale where 0 is no effect and 100 is complete control
In short: as §2

velvetleaf [13] = experiment: Test A preemergence; type: in vivo, Abutilon theophrasti; settings: for Velvetleaf plant response rating: 500 g ai/ha
In short: as §1

barnyardgrass [14] = experiment: Test A preemergence; type: in vivo, Echinochloa crus-galli; settings: for Barnyardgrass plant response rating: 500 g ai/ha
In short: as §1

barnyardgrass [15] = experiment: Test B flooded paddy test; type: in vivo, Echinochloa crus-galli; settings: Flood, 250 g ai/ha; 0 to 100 scale where 0 is no effect and 100 is complete control
In short: as §2

large (Lg) crabgrass [16] = experiment: Test A preemergence; type: in vivo, Digitaria sanguinalis; settings: for Crabgrass, Large plant response rating: 500 g ai/ha
In short: as §1

Heteranthera limosa = experiment: Test B flooded paddy test; type: in vivo; settings: Flood, 250 g ai/ha; 0 to 100 scale where 0 is no effect and 100 is complete control
In short: as §2

giant foxtail [17] = experiment: Test A preemergence; type: in vivo, Setaria faberii; settings: for Foxtail, Giant plant response rating: 500 g ai/ha
In short: as §1

[18] = 125 g ai/ha, 0 to 100 scale where 0 is no effect and 100 is complete control
[19] = 0 to 100 scale, 0 no effect, 100 complete control, approx. 10 days
[20] = 500 g ai/ha, 0 to 100 scale, 0 no effect, 100 complete control
[21] = 0 to 100 scale where 0 is no effect and 100 is complete control
[22] = 500 g ai/ha, 0 to 100 scale where 0 is no effect and 100 is complete control

Clc1ccc(-n2cccn2)c(Oc2ncc(Br)cn2)c1 [Compound 50]
20: Plant response rating, Pigweed (pigweed [9]; [18]) | Plant response rating, Morningglory (morningglory [11]; [18])
30: Plant response rating, Pigweed (pigweed [9]; [20]) | Plant response rating, Morningglory (morningglory [11]; [20])
40: Crabgrass, Large plant response rating (large (Lg) crabgrass [16]; [19])
10: Plant response rating, Crabgrass, Large (large (Lg) crabgrass [4]; [20]) | Plant response rating, Velvetleaf (velvetleaf [10]; [20]) | Plant response rating, Barnyardgrass (barnyardgrass [12]; [20])
0: Plant response rating, Wheat (wheat [1]; [18]) | Wheat plant response rating (wheat [1]; [19]) | Plant response rating, Foxtail, Giant (giant foxtail [2]; [18]) | Plant response rating, Foxtail, Giant (giant foxtail [2]; [20]) | Plant response rating, Wheat (wheat [3]; [18]) | Plant response rating, Wheat (wheat [3]; [20]) | Plant response rating, Crabgrass, Large (large (Lg) crabgrass [4]; [18]) | Plant response rating, Corn (corn [5]; [18]) | Plant response rating, Corn (corn [5]; [20]) | Plant response rating, Corn (corn [6]; [18]) | Corn plant response rating (corn [6]; [19]) | Plant response rating, Pigweed (pigweed [7]; [18]) | Pigweed plant response rating (pigweed [7]; [19]) | Plant response rating, Morningglory (morningglory [8]; [18]) | Morningglory plant response rating (morningglory [8]; [19]) | Plant response rating, Velvetleaf (velvetleaf [10]; [18]) | Plant response rating, Rice (rice) | Plant response rating, Barnyardgrass (barnyardgrass [12]; [18]) | Plant response rating, Sedge, Umbrella (sedge, umbrella) | Plant response rating, Velvetleaf (velvetleaf [13]; [18]) | Velvetleaf plant response rating (velvetleaf [13]; [19]) | Plant response rating, Barnyardgrass (barnyardgrass [14]; [18]) | Barnyardgrass plant response rating (barnyardgrass [14]; [19]) | Plant response rating, Barnyardgrass (barnyardgrass [15]) | Plant response rating, Crabgrass, Large (large (Lg) crabgrass [16]; [18]) | Plant response rating, Ducksalad (Heteranthera limosa) | Plant response rating, Foxtail, Giant (giant foxtail [17]; [18]) | Foxtail, Giant plant response rating (giant foxtail [17]; [19])

Clc1cnc(Oc2cc(Cl)ccc2-n2cccn2)nc1 [Compound 49]
10: Plant response rating, Foxtail, Giant (giant foxtail [2]; [20]) | Plant response rating, Crabgrass, Large (large (Lg) crabgrass [4]; [20]) | Plant response rating, Velvetleaf (velvetleaf [10]; [18]) | Plant response rating, Barnyardgrass (barnyardgrass [12]; [20]) | Foxtail, Giant plant response rating (giant foxtail [17]; [19])
20: Plant response rating, Morningglory (morningglory [11]; [20]) | Velvetleaf plant response rating (velvetleaf [13]; [19]) | Crabgrass, Large plant response rating (large (Lg) crabgrass [16]; [19])
40: Plant response rating, Pigweed (pigweed [9]; [20])
30: Plant response rating, Velvetleaf (velvetleaf [10]; [20])
0: Plant response rating, Wheat (wheat [1]; [18]) | Wheat plant response rating (wheat [1]; [19]) | Plant response rating, Foxtail, Giant (giant foxtail [2]; [18]) | Plant response rating, Wheat (wheat [3]; [18]) | Plant response rating, Wheat (wheat [3]; [20]) | Plant response rating, Crabgrass, Large (large (Lg) crabgrass [4]; [18]) | Plant response rating, Corn (corn [5]; [18]) | Plant response rating, Corn (corn [5]; [20]) | Plant response rating, Corn (corn [6]; [18]) | Corn plant response rating (corn [6]; [19]) | Plant response rating, Pigweed (pigweed [7]; [18]) | Pigweed plant response rating (pigweed [7]; [19]) | Plant response rating, Morningglory (morningglory [8]; [18]) | Morningglory plant response rating (morningglory [8]; [19]) | Plant response rating, Pigweed (pigweed [9]; [18]) | Plant response rating, Rice (rice) | Plant response rating, Morningglory (morningglory [11]; [18]) | Plant response rating, Barnyardgrass (barnyardgrass [12]; [18]) | Plant response rating, Sedge, Umbrella (sedge, umbrella) | Plant response rating, Velvetleaf (velvetleaf [13]; [18]) | Plant response rating, Barnyardgrass (barnyardgrass [14]; [18]) | Barnyardgrass plant response rating (barnyardgrass [14]; [19]) | Plant response rating, Barnyardgrass (barnyardgrass [15]) | Plant response rating, Crabgrass, Large (large (Lg) crabgrass [16]; [18]) | Plant response rating, Ducksalad (Heteranthera limosa) | Plant response rating, Foxtail, Giant (giant foxtail [17]; [18])

COc1cnn(-c2ccccc2Oc2ncc(Cl)cn2)c1 [Compound 186]
100: Pigweed plant response rating (0 to 100 scale) (pigweed [7]; 125 g ai/ha) | Pigweed plant response rating (pigweed [7]; [21]) | Pigweed plant response rating (pigweed [9]; [18]) | Plant response rating, Pigweed (pigweed [9]; [22]) | Plant response rating, Morningglory (morningglory [11]; [22]) | Velvetleaf plant response rating (velvetleaf [13]; [21]) | Barnyardgrass plant response rating (barnyardgrass [14]; [21]) | Crabgrass, Large plant response rating (0 to 100 scale) (large (Lg) crabgrass [16]; 125 g ai/ha) | Crabgrass, Large plant response rating (large (Lg) crabgrass [16]; [21]) | Foxtail, Giant plant response rating (giant foxtail [17]; [21])
70: Plant response rating, Crabgrass, Large (large (Lg) crabgrass [4]; [22]) | Plant response rating, Barnyardgrass (barnyardgrass [12]; [22]) | Velvetleaf plant response rating (0 to 100 scale) (velvetleaf [13]; 125 g ai/ha)
90: Plant response rating, Velvetleaf (velvetleaf [10]; [22])
30: Plant response rating, Corn (corn [5]; [22]) | Barnyardgrass plant response rating (0 to 100 scale, 0 is no effect, 100 is complete control) (barnyardgrass [14]; 125 g ai/ha)
20: Wheat plant response rating (wheat [1]; [21]) | Foxtail, Giant plant response rating (giant foxtail [2]; [18]) | Morningglory plant response rating (morningglory [8]; [21]) | Barnyardgrass plant response rating (barnyardgrass [12]; [18])
60: Plant response rating, Wheat (wheat [3]; [22]) | Morningglory plant response rating (morningglory [11]; [18])
80: Plant response rating, Foxtail, Giant (giant foxtail [2]; [22]) | Velvetleaf plant response rating (velvetleaf [10]; [18]) | Foxtail, Giant plant response rating (0 to 100 scale) (giant foxtail [17]; 125 g ai/ha)
0: Wheat plant response rating (0 to 100 scale) (wheat [1]; 125 g ai/ha) | Wheat plant response rating (wheat [3]; [18]) | Corn plant response rating (corn [5]; [18]) | Corn plant response rating (0 to 100 scale) (corn [6]; 125 g ai/ha) | Corn plant response rating (corn [6]; [21]) | Morningglory plant response rating (0 to 100 scale) (morningglory [8]; 125 g ai/ha) | Plant response rating, Rice (rice) | Plant response rating, Sedge, Umbrella (sedge, umbrella) | Plant response rating, Barnyardgrass (barnyardgrass [15]) | Plant response rating, Ducksalad (Heteranthera limosa)
40: Crabgrass, Large plant response rating (large (Lg) crabgrass [4]; [18])
